Laboratory results published in US20090018111A1, “Novel Antimicrobial Medicament” (priority 2004, published 2009).
Like-named read-outs stand apart in the source and are kept apart here.

Assays:
E. cloacae GN7471 = experiment: Sensitivity test (agar dilution); type: cell-based, Enterobacter cloacae; conditions: Enterobacter cloacae
Method in brief: (§1)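 FIC index is computed from MICs of each drug alone versus in combination (≤1 = enhancement, >1 = none). MICs are measured on Mueller Hinton agar plates carrying twofold dilution series and inoculated with about 10^6 CFU/ml bacterial suspension.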

E. coli ML1410 RP4 = experiment: microbe, parasite or virus in culture; type: cell-based, Escherichia coli; conditions: Escherichia coli
Method in brief: as §1

K. pneumoniae ATCC10031 = experiment: Sensitivity test (agar dilution); type: cell-based, Klebsiella pneumoniae; conditions: Klebsiella pneumoniae
Method in brief: as §1

S. aureus 209P = experiment: Sensitivity test (agar dilution); type: cell-based, Staphylococcus aureus; conditions: Staphylococcus aureus, 209P, S. aureus 209P, read-out: MIC concomitant
Method in brief: as §1

Q: `C[C@H]1C=C(c2csc(SC3=C(C(=O)O)N4C(=O)[C@H]([C@@H](C)O)[C@H]4[C@H]3C)n2)CN1` [SM, (4R,5S,6S)-6-[(1R)-1-Hydroxyethyl]-4-methyl-3-({4-[(5S)-5-methyl-2,5-dihydro-1H-pyrrol-3-yl]-1,3-thiazol-2-yl}sulfanyl)-7-oxo-1-azabicyclo[3.2.0]hept-2-ene-2-carboxylic acid] was tested. Which MIC (E. cloacae GN7471; GN7471, Concomitant (AZT:SM = 1:1), E. cloacae GN7471, read-out: MIC concomitant) did it give?
A: 4 µg/mL

Q: What about the MIC (E. cloacae GN7471; GN7471, Concomitant (BIPM:SM = 1:1), E. cloacae GN7471, read-out: MIC concomitant) of the same molecule?
A: 0.063 µg/mL

Q: What about the MIC (E. cloacae GN7471; GN7471, Concomitant (CAZ:SM = 1:1), E. cloacae GN7471, read-out: MIC concomitant) of the same molecule?
A: 8 µg/mL

Q: What about the MIC (E. cloacae GN7471; GN7471, Concomitant (CPFX:SM = 1:1), E. cloacae GN7471, read-out: MIC concomitant) of the same molecule?
A: 0.016 µg/mL

Q: What about the MIC (E. cloacae GN7471; GN7471, Concomitant (DRPM:SM = 1:1), E. cloacae GN7471, read-out: MIC concomitant) of the same molecule?
A: 0.031 µg/mL

Q: And the MIC (E. cloacae GN7471; GN7471, Concomitant (IPM:SM = 1:1), read-out: MIC)?
A: 0.125 µg/mL

Q: What about the MIC (E. cloacae GN7471; GN7471, Concomitant (MEPM:SM = 1:1), read-out: MIC) of the same molecule?
A: 0.031 µg/mL

Q: And the MIC (E. cloacae GN7471; GN7471, Concomitant (MEPM:SM = 1:2), read-out: MIC)?
A: 0.063 µg/mL

Q: What about the MIC (E. cloacae GN7471; GN7471, Concomitant (MEPM:SM = 1:4), read-out: MIC) of the same molecule?
A: 0.125 µg/mL

Q: What about the MIC (E. cloacae GN7471; GN7471, Concomitant (PAPM:SM = 1:1), E. cloacae GN7471, read-out: MIC concomitant) of the same molecule?
A: 0.125 µg/mL

Q: And the MIC (E. cloacae GN7471; GN7471, Concomitant (PIPC:SM = 1:1), E. cloacae GN7471, read-out: MIC concomitant)?
A: 8 µg/mL

Q: And the MIC (E. cloacae GN7471; GN7471, Concomitant drug (MEPM:SM = 2:1), read-out: MIC)?
A: 0.016 µg/mL

Q: What about the MIC (E. cloacae GN7471; GN7471, alone, read-out: MIC) of the same molecule?
A: 8 µg/mL

Q: What about the MIC (E. cloacae GN7471; GN7471, drug alone, E. cloacae GN7471, read-out: MIC alone) of the same molecule?
A: 8 µg/mL

Q: What about the MIC (E. coli ML1410 RP4; ML1410RP4, Concomitant (IPM:SM = 1:1)) of the same molecule?
A: 0.125 µg/mL

Q: What about the MIC (E. coli ML1410 RP4; ML1410RP4, Concomitant (MEPM:SM = 1:1)) of the same molecule?
A: ≤ 0.016 µg/mL

Q: And the MIC (E. coli ML1410 RP4; ML1410RP4, Concomitant (MEPM:SM = 1:2))?
A: ≤ 0.031 µg/mL

Q: What about the MIC (E. coli ML1410 RP4; ML1410RP4, Concomitant (MEPM:SM = 1:4)) of the same molecule?
A: ≤ 0.063 µg/mL

Q: What about the MIC (E. coli ML1410 RP4; ML1410RP4, Concomitant drug (MEPM:SM = 2:1)) of the same molecule?
A: ≤ 0.008 µg/mL

Q: What about the MIC (E. coli ML1410 RP4; ML1410RP4, alone) of the same molecule?
A: 0.5 µg/mL

Q: What about the MIC (E. coli ML1410 RP4; ML1410RP4, read-out: MIC alone, drug alone, E. coli ML1410 RP4) of the same molecule?
A: 0.5 µg/mL

Q: And the MIC (E. coli ML1410 RP4; ML1410RP4, read-out: MIC concomitant, Concomitant (AZT:SM = 1:1), E. coli ML1410 RP4)?
A: 0.063 µg/mL

Q: What about the MIC (E. coli ML1410 RP4; ML1410RP4, read-out: MIC concomitant, Concomitant (BIPM:SM = 1:1), E. coli ML1410 RP4) of the same molecule?
A: 0.125 µg/mL

Q: What about the MIC (E. coli ML1410 RP4; ML1410RP4, read-out: MIC concomitant, Concomitant (CAZ:SM = 1:1), E. coli ML1410 RP4) of the same molecule?
A: 0.125 µg/mL

Q: What about the MIC (E. coli ML1410 RP4; ML1410RP4, read-out: MIC concomitant, Concomitant (CPFX:SM = 1:1), E. coli ML1410 RP4) of the same molecule?
A: 0.25 µg/mL

Q: And the MIC (E. coli ML1410 RP4; ML1410RP4, read-out: MIC concomitant, Concomitant (DRPM:SM = 1:1), E. coli ML1410 RP4)?
A: 0.031 µg/mL

Q: What about the MIC (E. coli ML1410 RP4; ML1410RP4, read-out: MIC concomitant, Concomitant (PAPM:SM = 1:1), E. coli ML1410 RP4) of the same molecule?
A: 0.125 µg/mL

Q: And the MIC (E. coli ML1410 RP4; ML1410RP4, read-out: MIC concomitant, Concomitant (PIPC:SM = 1:1), E. coli ML1410 RP4)?
A: 0.5 µg/mL

Q: And the MIC (K. pneumoniae ATCC10031; ATCC10031, Concomitant (AZT:SM = 1:1), K. pneumoniae ATCC10031, read-out: MIC concomitant)?
A: 0.004 µg/mL

Q: And the MIC (K. pneumoniae ATCC10031; ATCC10031, Concomitant (BIPM:SM = 1:1), K. pneumoniae ATCC10031, read-out: MIC concomitant)?
A: 0.016 µg/mL

Q: What about the MIC (K. pneumoniae ATCC10031; ATCC10031, Concomitant (CAZ:SM = 1:1), K. pneumoniae ATCC10031, read-out: MIC concomitant) of the same molecule?
A: 0.008 µg/mL

Q: And the MIC (K. pneumoniae ATCC10031; ATCC10031, Concomitant (CPFX:SM = 1:1), K. pneumoniae ATCC10031, read-out: MIC concomitant)?
A: ≤ 0.002 µg/mL

Q: And the MIC (K. pneumoniae ATCC10031; ATCC10031, Concomitant (DRPM:SM = 1:1), K. pneumoniae ATCC10031, read-out: MIC concomitant)?
A: 0.008 µg/mL

Q: And the MIC (K. pneumoniae ATCC10031; ATCC10031, Concomitant (IPM:SM = 1:1), read-out: MIC)?
A: 0.031 µg/mL

Q: What about the MIC (K. pneumoniae ATCC10031; ATCC10031, Concomitant (MEPM:SM = 1:1), read-out: MIC) of the same molecule?
A: ≤ 0.016 µg/mL

Q: And the MIC (K. pneumoniae ATCC10031; ATCC10031, Concomitant (MEPM:SM = 1:2), read-out: MIC)?
A: ≤ 0.031 µg/mL

Q: What about the MIC (K. pneumoniae ATCC10031; ATCC10031, Concomitant (MEPM:SM = 1:4), read-out: MIC) of the same molecule?
A: ≤ 0.063 µg/mL

Q: And the MIC (K. pneumoniae ATCC10031; ATCC10031, Concomitant (PAPM:SM = 1:1), K. pneumoniae ATCC10031, read-out: MIC concomitant)?
A: 0.016 µg/mL

Q: What about the MIC (K. pneumoniae ATCC10031; ATCC10031, Concomitant (PIPC:SM = 1:1), K. pneumoniae ATCC10031, read-out: MIC concomitant) of the same molecule?
A: 0.016 µg/mL

Q: And the MIC (K. pneumoniae ATCC10031; ATCC10031, Concomitant drug (MEPM:SM = 2:1), read-out: MIC)?
A: ≤ 0.008 µg/mL

Q: And the MIC (S. aureus 209P; Concomitant (AZT:SM = 1:1))?
A: 0.008 µg/mL

Q: What about the MIC (S. aureus 209P; Concomitant (BIPM:SM = 1:1)) of the same molecule?
A: 0.008 µg/mL

Q: And the MIC (S. aureus 209P; Concomitant (CAZ:SM = 1:1))?
A: 0.004 µg/mL

Q: What about the MIC (S. aureus 209P; Concomitant (CPFX:SM = 1:1)) of the same molecule?
A: 0.008 µg/mL

Q: What about the MIC (S. aureus 209P; Concomitant (DRPM:SM = 1:1)) of the same molecule?
A: 0.004 µg/mL
